Measurements taken from US12036221B2, “Ketamine or dextromethorphan formulations and methods of use” (West Virginia University, priority 2014, dated 2024).

Assays:
[1] = forced swim test (preclinical); type: in vivo; conditions: preclinical studies
NMDA receptors = conditions: cited from earlier work
sigma receptors = conditions: cited from earlier work
[2] = in vivo; cited from earlier work
depression = conditions: cited from earlier work
[3] = system: treatment resistant patients; assay: off-label use of transbuccal ketamine in treatment resistant patients (day-hospital, preliminary data)

Compound: COc1ccc2c(c1)[C@]13CCCC[C@@H]1[C@H](C2)N(C)CC3 [DM, dextromethorphan]
- immobility time in the forced swim test [1]: dose dependently reduces immobility time
- affinity for NMDA receptors (NMDA receptors): moderate affinity
- affinity for sigma receptors (sigma receptors): significant affinity
- metabolism in the body [2]: rapidly metabolized in the body to dextrorphan

Compound: CN(C)CCCN1c2ccccc2CCc2ccccc21 [imipramine]
- immobility time in the forced swim test [1]: dose dependently reduces immobility time

Compound: CNC1(c2ccccc2Cl)CCCCC1=O (stereo not drawn) [ketamine]
- immobility time in the forced swim test [1]: dose dependently reduces immobility time
- affinity for sigma receptors (sigma receptors): significant affinity
- duration of antidepressant effects (depression; in vivo): up to two
- onset of antidepressant effects after administration (depression; off-label use): ≤ 24 h
- onset of rapid acting antidepressant effects (depression; sub-anesthetic doses): two
- onset of antidepressant effects ([3]; 0.5 mg/kg liquid ketamine held in the mouth (transbuccal), patient report and clinician observation): ≤ 24 h
- side effects ([3]; 0.5 mg/kg liquid ketamine, transbuccal / oral mucosa absorption): No side effects (except for a transient, mild headache and slight dizziness in one patient each soon after administration)
